Converted amounts (≈) assume the structure as drawn. Blank lines part the entries; values can stand above or below the molecule they belong to.
What was measured:
[1] = target: Glutamate receptor ionotropic, kainate 1 (Homo sapiens, UniProt P39086); assay: Binding affinity to GluK1 receptor (unknown origin)
[2] = Binding affinity to KA receptor (unknown origin); design: species or system Homo sapiens
[3] = target: T1, Glutamate receptor ionotropic AMPA (Homo sapiens, UniProt P42261+P42262+P42263+P48058); assay: Binding affinity to AMPA receptor (unknown origin); type: protein-complex assay
[4] = target: Glutamate [NMDA] receptor; assay: Binding affinity to NMDA receptor (unknown origin); type: protein-complex assay, Homo sapiens
[5] = target: Glutamate receptor ionotropic, kainate 2 (Homo sapiens, UniProt Q13002); assay: Binding affinity to GluK2 receptor (unknown origin)
[6] = test system: Candida albicans; assay: Antifungal activity against Candida albicans; type: functional
[7] = test system: Staphylococcus aureus; assay: Antibacterial activity against Staphylococcus aureus; type: functional
[8] = test system: Aspergillus niger; assay: Antifungal activity against Aspergillus niger; type: functional
[9] = test system: Bacillus cereus; assay: Antibacterial activity against Bacillus cereus; type: functional
[10] = test system: Pseudomonas aeruginosa; assay: Antibacterial activity against Pseudomonas aeruginosa; type: functional
[11] = test system: Escherichia coli; assay: Antibacterial activity against Escherichia coli; type: functional
[12] = test system: Trichophyton mentagrophytes; assay: Antimicrobial activity against Trichophyton mentagrophytes; type: functional
[13] = Displacement of [3H]glycine from AMPA receptor (unknown origin); type: protein-complex assay, Homo sapiens
[14] = target: T1, Glutamate receptor ionotropic AMPA; assay: Displacement of [3H]AMPA from AMPA receptor (unknown origin); type: protein-complex assay
[15] = target: T1, Glutamate receptor ionotropic AMPA; assay: Displacement of [3H]kainic acid from AMPA receptor (unknown origin); type: protein-complex assay
[16] = target: Glutamate [NMDA] receptor; assay: Displacement of [3H]DCKA from NMDA receptor (unknown origin); type: protein-complex assay, Homo sapiens
[17] = Inhibition of ALR2 (unknown origin); design: species or system Homo sapiens
[18] = Inhibition of ALR1 (unknown origin) relative to control; design: concentration or dose not given beside the values; conditions: Homo sapiens; concentration not given here
[19] = Antioxidant activity assessed as DPPH radical scavenging activity; type: functional; conditions: read-out: IC50
[20] = test system: Klebsiella pneumoniae; assay: Antibacterial activity against Klebsiella pneumoniae; type: functional
[21] = target: Glutamate receptor 2 (Homo sapiens, UniProt P42262); assay: Binding affinity to GluA2 receptor (unknown origin)
[22] = test system: HeLa; assay: Antiproliferative activity against human HeLa cells; type: functional, cell-based
[23] = test system: MCF7; assay: Antiproliferative activity against human MCF7 cells; type: functional, cell-based

Sequence of Glutamate receptor ionotropic, kainate 2 (Q13002 whole entry): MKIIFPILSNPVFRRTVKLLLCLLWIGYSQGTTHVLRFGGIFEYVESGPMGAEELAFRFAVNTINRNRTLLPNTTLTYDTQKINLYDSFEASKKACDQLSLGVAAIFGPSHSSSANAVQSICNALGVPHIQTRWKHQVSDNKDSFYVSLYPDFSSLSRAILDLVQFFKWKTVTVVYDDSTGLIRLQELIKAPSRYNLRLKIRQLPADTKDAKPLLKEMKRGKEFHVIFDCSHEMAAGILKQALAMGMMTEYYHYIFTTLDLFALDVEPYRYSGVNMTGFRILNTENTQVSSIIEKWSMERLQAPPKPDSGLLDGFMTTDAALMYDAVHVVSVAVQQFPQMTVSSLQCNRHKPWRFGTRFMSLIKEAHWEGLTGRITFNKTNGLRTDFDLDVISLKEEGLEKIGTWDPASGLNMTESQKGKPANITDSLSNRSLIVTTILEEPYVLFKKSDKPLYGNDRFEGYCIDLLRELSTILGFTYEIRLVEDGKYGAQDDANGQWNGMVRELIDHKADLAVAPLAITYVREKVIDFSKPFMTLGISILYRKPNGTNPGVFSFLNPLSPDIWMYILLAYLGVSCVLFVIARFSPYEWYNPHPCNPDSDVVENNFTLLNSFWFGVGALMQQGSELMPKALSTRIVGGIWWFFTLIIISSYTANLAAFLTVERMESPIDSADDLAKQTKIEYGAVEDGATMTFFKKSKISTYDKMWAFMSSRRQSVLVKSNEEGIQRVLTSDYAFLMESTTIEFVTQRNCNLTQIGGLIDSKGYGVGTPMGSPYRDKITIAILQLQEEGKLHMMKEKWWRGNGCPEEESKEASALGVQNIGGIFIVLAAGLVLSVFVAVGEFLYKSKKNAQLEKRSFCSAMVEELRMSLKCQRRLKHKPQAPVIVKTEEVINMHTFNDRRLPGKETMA
Sequence of Glutamate receptor ionotropic, kainate 1 (P39086 whole entry): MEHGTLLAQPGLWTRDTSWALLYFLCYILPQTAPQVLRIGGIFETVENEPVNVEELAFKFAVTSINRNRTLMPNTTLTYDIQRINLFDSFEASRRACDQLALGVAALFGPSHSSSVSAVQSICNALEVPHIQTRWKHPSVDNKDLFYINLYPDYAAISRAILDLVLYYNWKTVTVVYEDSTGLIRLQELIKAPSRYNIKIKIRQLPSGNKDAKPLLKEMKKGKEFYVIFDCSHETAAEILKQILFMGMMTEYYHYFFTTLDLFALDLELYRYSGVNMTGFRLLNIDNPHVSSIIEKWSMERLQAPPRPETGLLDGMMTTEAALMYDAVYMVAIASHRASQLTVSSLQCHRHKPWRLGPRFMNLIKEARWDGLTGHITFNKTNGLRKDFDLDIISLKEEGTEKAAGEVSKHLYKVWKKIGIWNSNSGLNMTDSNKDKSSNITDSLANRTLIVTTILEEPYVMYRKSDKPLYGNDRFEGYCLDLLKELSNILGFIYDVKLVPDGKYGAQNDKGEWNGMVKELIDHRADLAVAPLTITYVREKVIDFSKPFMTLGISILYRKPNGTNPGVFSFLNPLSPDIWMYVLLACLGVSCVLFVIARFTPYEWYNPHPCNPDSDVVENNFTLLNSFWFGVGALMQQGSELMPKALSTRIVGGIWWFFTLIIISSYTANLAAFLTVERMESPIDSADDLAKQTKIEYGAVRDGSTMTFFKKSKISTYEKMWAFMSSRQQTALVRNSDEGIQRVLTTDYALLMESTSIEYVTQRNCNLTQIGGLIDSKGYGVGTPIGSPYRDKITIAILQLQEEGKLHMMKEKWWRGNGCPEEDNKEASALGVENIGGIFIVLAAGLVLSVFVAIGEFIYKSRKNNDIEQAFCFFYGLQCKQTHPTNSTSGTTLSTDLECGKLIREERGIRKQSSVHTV
Sequence of Glutamate receptor 2 (P42262 whole entry): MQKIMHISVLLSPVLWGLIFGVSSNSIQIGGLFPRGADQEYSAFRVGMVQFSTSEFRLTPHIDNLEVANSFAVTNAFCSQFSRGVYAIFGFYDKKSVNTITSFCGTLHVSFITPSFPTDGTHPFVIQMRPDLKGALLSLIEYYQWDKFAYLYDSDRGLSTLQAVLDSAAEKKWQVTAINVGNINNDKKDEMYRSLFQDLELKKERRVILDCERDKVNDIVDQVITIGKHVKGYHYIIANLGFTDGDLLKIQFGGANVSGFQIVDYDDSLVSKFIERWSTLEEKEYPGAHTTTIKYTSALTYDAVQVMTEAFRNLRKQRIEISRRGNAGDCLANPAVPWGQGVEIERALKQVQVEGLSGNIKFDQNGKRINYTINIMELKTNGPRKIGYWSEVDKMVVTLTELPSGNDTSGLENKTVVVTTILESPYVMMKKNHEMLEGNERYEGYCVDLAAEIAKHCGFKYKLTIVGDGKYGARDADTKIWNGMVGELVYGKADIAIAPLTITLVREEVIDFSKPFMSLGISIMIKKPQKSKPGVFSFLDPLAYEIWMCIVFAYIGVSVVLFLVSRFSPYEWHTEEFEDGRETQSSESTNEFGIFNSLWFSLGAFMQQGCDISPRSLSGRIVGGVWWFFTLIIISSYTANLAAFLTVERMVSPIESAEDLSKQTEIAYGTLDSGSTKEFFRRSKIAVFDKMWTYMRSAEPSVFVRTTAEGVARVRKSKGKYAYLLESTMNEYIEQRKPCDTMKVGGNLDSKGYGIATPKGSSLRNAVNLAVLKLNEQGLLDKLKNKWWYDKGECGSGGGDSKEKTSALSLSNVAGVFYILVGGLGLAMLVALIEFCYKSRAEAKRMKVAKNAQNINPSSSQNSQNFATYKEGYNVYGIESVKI

Compound: O=c1[nH]c2ccc(CCCP(=O)(O)O)cc2[nH]c1=O
Ki [1]: > 100 µM
IC50 [2]: > 100 µM
IC50 [3]: > 100 µM
Ki [4]: 55 µM
Ki [5]: > 100 µM

Compound: CCCCCCCCCn1c(=O)c2c(-c3ccccc3)nc(-c3ccc[n+](Cc4ccccc4)c3)n2c2ccccc21.[Cl-]
MBC [6]: 500 µg/mL
MIC [6]: 3.9 µg/mL
MBC [7]: 50 µg/mL
MIC [7]: 1.95 µg/mL
MBC [8]: > 500 µg/mL
MIC [8]: > 500 µg/mL
MBC [9]: > 500 µg/mL
MIC [9]: 12.5 µg/mL
MBC [10]: > 500 µg/mL
MIC [10]: > 500 µg/mL
MBC [11]: > 500 µg/mL
MIC [11]: > 500 µg/mL
MBC [12]: > 500 µg/mL
MIC [12]: 500 µg/mL

Compound: O=C(O)CNS(=O)(=O)c1ccc2nc(O)c(O)nc2c1
Ki [1]: > 100 µM
IC50 [2]: > 100 µM
IC50 [3]: > 100 µM
Ki [4]: 53 µM
Ki [5]: > 100 µM

Compound: O=c1[nH]c2ccc(/C=C/CP(=O)(O)O)cc2[nH]c1=O
Ki [1]: > 100 µM
IC50 [2]: > 100 µM
IC50 [3]: > 100 µM
Ki [4]: 69 µM
Ki [5]: > 100 µM

Compound: Nc1cc(Cl)cc2[nH]c(=O)c3nc(C(=O)O)nn3c12
Ki [13]: 0.16 µM
Ki [14]: 3.2 µM
IC50 [15]: 34.1 µM

Compound: C[C@H]1Cc2cc(Br)cc3[nH]c(=O)c(=O)n(c23)C1CC(=O)O (some centres undefined)
Ki [16]: 0.0033 µM

Compound: CCOC(=O)c1nc2cc(F)ccc2[nH]c1=O
MIC [10]: 250 µg/mL (≈ 1060 µM)

Compound: C=Cc1c(Br)cc2nc(O)c(O)nc2c1CN(C)CC(=O)O
IC50 [14]: 1.18 µM

Compound: CCc1c(Br)cc2nc(O)c(O)nc2c1CN(C)CC(=O)O
IC50 [14]: 2.32 µM

Compound: CCOC(=O)CN(C)Cc1c(CC)c([N+](=O)[O-])cc2nc(O)c(O)nc12
IC50 [13]: > 10 µM
IC50 [14]: 1.59 µM

Compound: O=C(O)C[C@@H]1CCc2cc(Br)cc3[nH]c(=O)c(=O)n1c23
Ki [16]: 0.0023 µM

Compound: O=C(O)c1ccn(-c2cc3c(cc2[N+](=O)[O-])nc(O)c2nc(C(=O)O)nn23)c1
Ki [14]: 0.019 µM

Compound: CCc1nc2ccc(C(F)(F)F)cc2[nH]c1=O
MIC [10]: 125 µg/mL (≈ 516 µM)

Compound: O=C(Nc1ccc(C(=O)O)cc1)OCc1cn(-c2cc3nc(C(=O)O)c(O)nc3cc2C(F)(F)F)cn1
Ki [3]: 0.016 µM

Compound: N[C@@H](Cc1ccc2[nH]c(=O)c(=O)[nH]c2c1)C(=O)O
Ki [1]: > 100 µM
IC50 [14]: 203 µM
Ki [21]: > 100 µM
IC50 [15]: > 300 µM
Ki [5]: 136 µM

Compound: NC(CNC(=O)C(=O)O)C(=O)O (centres undefined)
IC50 [14]: 1.3 µM

Compound: CCCCCCCCC[n+]1cccc(-c2nc(-c3ccccc3)c3c(=O)n(CCCCCC)c4ccccc4n23)c1.[Br-]
MBC [6]: 50 µg/mL
MIC [6]: 0.97 µg/mL
MBC [7]: 5 µg/mL
MIC [7]: 0.97 µg/mL
MBC [8]: > 500 µg/mL
MIC [8]: > 500 µg/mL
MBC [9]: 50 µg/mL
MIC [9]: 0.97 µg/mL
MBC [10]: > 500 µg/mL
MIC [10]: > 500 µg/mL
MBC [11]: 500 µg/mL
MIC [11]: 500 µg/mL
MBC [12]: 250 µg/mL
MIC [12]: 250 µg/mL

The next lines start with results.

IC50 [17]: 0.00644 µM
inhibition [18]: 58.7%
Compound: O=C(O)Cn1c(=O)c(Oc2ccc(Br)cc2F)nc2ccc(F)cc21

Ki [16]: 0.0014 µM
Compound: CC[C@H]1Cc2cc(Br)cc3[nH]c(=O)c(=O)n(c23)C1CC(=O)O (some centres undefined)

IC50 [19]: 28.9 µM
Compound: CSCCc1nc2ccc(N3C(=O)CSC3c3ccc([N+](=O)[O-])cc3)cc2[nH]c1=O (centres undefined)
MBC [6]: 353 µM
MBC [20]: 706 µM (≈ 313 µg/mL)

Ki [16]: 0.0031 µM
Compound: C[C@H]1Cc2cc(Cl)cc3[nH]c(=O)c(=O)n(c23)C1CC(=O)Nc1ccccc1 (some centres undefined)

Ki [16]: 0.0096 µM
Compound: O=C(O)C[C@H]1CCc2cc(Br)cc3[nH]c(=O)c(=O)n1c23

IC50 [17]: 0.0163 µM
inhibition [18]: 25.6%
Compound: O=C(O)Cn1c(=O)c(Oc2ccc(Br)cc2)nc2cc(Br)ccc21

IC50 [22]: 8.92 µM
IC50 [23]: 2.61 µM
Compound: COc1ccc(/C(=C(\C#N)C(=O)NN)n2c(=O)c(O)nc3ccccc32)cc1

Source: ChEMBL document CHEMBL5113380, “Functionalized quinoxalinones as privileged structures with broad-ranging pharmacological activities” (Eur J Med Chem, 2022)
